What was measured:
c-myc gene [1] = test: MYC protein by Western blot normalized to H2b, LNCaP cells; type: cell-based, human; conditions: for change in MYC: 2 μM, preliminary experiments
Description: (§1) Total cellular proteins samples were derived from 10^7 cells solubilized in 200 μl Urea lysis buffer (9M Urea, 50 mM Tris, pH 7.0) with brief sonication at 0° C. as needed. Western blot analysis for MYC expression was performed as described previously (29). Briefly, total cellular proteins were electrophoretically separated using 10% acrylamide, 0.4% (w/v) SDS gels and then transferred to a nitrocellulose membrane (Hybond C-extra, Amersham). The membrane was then cut at a […] molecular weight level (using as reference Kaleidoscope pre-stained standards, BioRad). Both membrane halves were incubated in parallel overnight with a primary antibody (top with anti-myc antibody, 9E10 Calbiochem, San Diego, Calif.; bottom with anti-H2b antibody kindly provided by Dr. M. Romani, IST, Genova, I). The membranes were washed and exposed to a rabbit anti-mouse IgG (Dakopatts, Glostrup, DK) at room temperature for 1 h. MYC and H2b bands were visualized by the incubation of the membrane with alkaline phosphatase-conjugated goat anti-rabbit IgG (Sigma) at room temperature for 2 h followed by exposure to the 5-bromo-4-chloro-3-indolylphosphate/nitro blue tetrazolium substrate developer (BCIP/NBT, Sigma).
(§2) The stained and reassembled Western blot images, from triplicate experiments, were digitally acquired, elaborated in Photoshop, and then quantified using Scion-Image. MYC concentrations were normalized to the matching histone H2b concentrations (a protein that remains constant throughout the treatment described). Therefore MYC concentration is reported as a ratio to an H2b standard. For Western blot analyses, the average error was 14.0% (range 8.3 to 25.1%) in the LNCaP experiments and for those with DU145 averaged 10.2% (range 8.5 to 20.3%).
As shown in Fugure 4A, the amount of MYC protein was evaluated by Western blot analysis of […]. The effects of PNAs on expression of the c-myc gene in LNCaP and DU145 cells were also obtained by immunochemical measurement of the MYC protein content of cell lysates, using data obtained from at least a triplicate run of each set of immunostained Western blots. In each case, the MYC content of the whole cell lysate was compared to that of histone H2b, a protein that remains constant throughout the treatment described. The constancy of H2b made it possible to represent variations in MYC protein concentration normalized to the H2b content in the same lysate.

c-myc gene [2] = test: MYC protein by Western blot normalized to H2b, DU145 cells; type: cell-based, human; conditions: 10 μM
Description: as §1, §2
As shown in Fugure 4A, the amount of MYC protein was evaluated by Western blot analysis of total nuclear proteins. […]

[3] = Solubility of PNA constructs in culture medium and stock solution; type: physicochemical; conditions: cell culture medium (RPMI complete medium); higher concentrations precipitate; read-out: maximum solubility in RPMI complete medium
Description: Table 1 contains a description of the experimental PNAs used in this study, including their modifications and corresponding abbreviations. In particular, PNA-mycwt is a 17-mer PNA anti-gene for the unique sequence of c-myc, bases 4528-4544, in its II exon (21). […] All the other PNAs listed in Table 1 had solubilities in excess of 500 μM (stock solution described above), far above the 10 μM concentration used in most experiments.

LNCaP cells [4] = test: Cell growth by total cell counts, LNCaP cells; type: cell-based, human; conditions: 10 μM, 72 hours
Description: (§3) Two prostatic carcinoma derived cell lines were used (LNCaP and DU145 cultured in RPMI-1640, 10% charcoal-stripped fetal calf serum). Their features and culture conditions were as previously detailed (26, 27). PNA stock solutions (500 μM in H2O neutralized with NaOH) were added as an aliquot to the culture medium to their final concentration. […] In the gene regulation experiments, PNAmycwt, PNAmycwt-T, PNAmycmut-T, and PNAmycwt-NLS were present at a final 10 μM concentration in the culture medium, for 0, 24, 48, or 72 hours. Cell growth was measured by total cell counts from three replicate flasks (1.3-5.0×10^6 per each 75 cm^2/flask) while cell viability was determined by Trypan blue exclusion. The standard deviation was calculated both for cell growth and viability keeping into account the data from all the experiments (minimum of three each).
(§4) LNCaP and DU145 cells were treated with a 10 μM concentration of PNA constructs in the culture medium (PNA-mycwt-T (Δ), PNA-mycwt, PNA-mycmut, PNA-mycmut-T (●) as negative controls and PNA-mycwt-NLS (▪) as positive control). Cell numbers (FIGS. 3A and C) and viability (FIGS. 3B and D) were estimated, as described above, at increasing times of exposure to different PNA constructs.

LNCaP cells [5] = test: Cell viability by Trypan blue exclusion, LNCaP cells
Description: as §3, §4

DU145 cells [6] = test: Cell growth by total cell counts, DU145 cells; type: cell-based, human; conditions: 10 μM, 72 h
Description: as §3, §4

DU145 cells [7] = test: Cell viability by Trypan blue exclusion, DU145 cells; type: cell-based, human; conditions: 10 μM, up to 72 h, compared with the about 20% decline seen in LNCaP
Description: as §3, §4

Burkitt's lymphoma cells = conditions: 10 μM in the cell medium; cited from earlier work

Question: Which results are given for “PNA-mycwt: 17-mer c-myc anti-gene PNA, TCA ACG TTA GCT TCA CC (SEQ ID NO:1), vector-free (TCAACGTTAGCTTCACC; all peptide nucleic acid (PNA); further chemistry not fully specified)”?
Answer: effect on MYC protein / expression (c-myc gene [1]; 10 μM): unchanged; effect on MYC protein / expression (c-myc gene [2]): unaltered

Question: With CCN(CC)c1ccc2c(-c3ccccc3C(=O)NCCCC[C@H](NC(=O)COCCOCCNC(=O)CN(CCNC(=O)CN(CCNC(=O)CN(CCNC(=O)CN(CCNC(=O)CN(CCNC(=O)CN(CCNC(=O)CN(CCNC(=O)CN(CCNC(=O)CN(CCNC(=O)CN(CCNC(=O)CN(CCNC(=O)CN(CCNC(=O)CN(CCNC(=O)CN(CCNC(=O)CN(CCNC(=O)CN(CCNC(=O)CN(CCNC(=O)COCCOCCNC(=O)CCC(=O)O[C@H]3CC[C@H]4[C@@H]5CC[C@H]6CC(=O)CC[C@]6(C)[C@H]5CC[C@]34C)C(=O)Cn3cc(C)c(=O)[nH]c3=O)C(=O)Cn3ccc(N)nc3=O)C(=O)Cn3cnc4c(N)ncnc43)C(=O)Cn3cnc4c(N)ncnc43)C(=O)Cn3ccc(N)nc3=O)C(=O)Cn3cnc4c(=O)[nH]c(N)nc43)C(=O)Cn3cc(C)c(=O)[nH]c3=O)C(=O)Cn3cc(C)c(=O)[nH]c3=O)C(=O)Cn3cnc4c(N)ncnc43)C(=O)Cn3cnc4c(=O)[nH]c(N)nc43)C(=O)Cn3ccc(N)nc3=O)C(=O)Cn3cc(C)c(=O)[nH]c3=O)C(=O)Cn3cc(C)c(=O)[nH]c3=O)C(=O)Cn3ccc(N)nc3=O)C(=O)Cn3cnc4c(N)ncnc43)C(=O)Cn3ccc(N)nc3=O)C(=O)Cn3ccc(N)nc3=O)C(=O)NCC(N)=O)c3ccc(=[N+](CC)CC)cc-3oc2c1 [PNA-mycwt-TR] as the compound, how does the solubility [3] read?
Answer: The solubility was 2 µM.

Question: What about the “change in MYC” value (c-myc gene [1]; 24 hours) of the same compound?
Answer: Its value is −20%.

Question: And the “change in MYC” value (c-myc gene [1]; 48 h)?
Answer: The value was −30%.

Question: What about the “change in MYC” value (c-myc gene [1]; 72 h) of the same compound?
Answer: The value was −30%.

Question: With “PNA-mycwt-T: c-myc anti-gene PNA (SEQ ID NO:1) linked to dihydrotestosterone at N-terminal (TCAACGTTAGCTTCACC; all peptide nucleic acid (PNA); dihydrotestosterone conjugated at PNA N-terminus)” as the compound, how does the cell growth (LNCaP cells [4]) read?
Answer: Its cell growth is 34 % of control.

Question: What about the “decline in cell viability” value (LNCaP cells [5]; LNCaP cells, 10 μM, 72 h) of the same compound?
Answer: The value was “about 20%”.

Question: And the “effect on MYC protein / expression” value (c-myc gene [1]; 10 μM)?
Answer: The value was “significant and persistent decrease”.

Question: And the “change in MYC content” value (c-myc gene [1]; 10 μM, 24 h)?
Answer: The value was −63%.

Question: And the “change in MYC content” value (c-myc gene [1]; 10 μM, 48 hours)?
Answer: The value was −50%.

Question: And the “change in MYC content” value (c-myc gene [1]; 10 μM, 72 hours)?
Answer: The value was −42%.

Question: What about the “effect on MYC protein / expression” value (c-myc gene [2]) of the same compound?
Answer: Its value is “unaltered”.

Question: With CCN(CC)c1ccc2c(-c3ccccc3C(=O)NCCCC[C@H](NC(=O)COCCOCCNC(=O)CN(CCNC(=O)CN(CCNC(=O)CN(CCNC(=O)CN(CCNC(=O)CN(CCNC(=O)CN(CCNC(=O)CN(CCNC(=O)CN(CCNC(=O)CN(CCNC(=O)CN(CCNC(=O)CN(CCNC(=O)CN(CCNC(=O)CN(CCNC(=O)CN(CCNC(=O)CN(CCNC(=O)CN(CCNC(=O)CN(CCN)C(=O)Cn3cc(C)c(=O)[nH]c3=O)C(=O)Cn3ccc(N)nc3=O)C(=O)Cn3cnc4c(N)ncnc43)C(=O)Cn3cnc4c(N)ncnc43)C(=O)Cn3ccc(N)nc3=O)C(=O)Cn3cnc4c(=O)[nH]c(N)nc43)C(=O)Cn3cc(C)c(=O)[nH]c3=O)C(=O)Cn3cc(C)c(=O)[nH]c3=O)C(=O)Cn3cnc4c(N)ncnc43)C(=O)Cn3cnc4c(=O)[nH]c(N)nc43)C(=O)Cn3ccc(N)nc3=O)C(=O)Cn3cc(C)c(=O)[nH]c3=O)C(=O)Cn3cc(C)c(=O)[nH]c3=O)C(=O)Cn3ccc(N)nc3=O)C(=O)Cn3cnc4c(N)ncnc43)C(=O)Cn3ccc(N)nc3=O)C(=O)Cn3ccc(N)nc3=O)C(=O)NCC(N)=O)c3ccc(=[N+](CC)CC)cc-3oc2c1 [PNA-mycwt-R] as the compound, how does the solubility [3] read?
Answer: The solubility was 2 µM.

Question: Which cell growth (LNCaP cells [4]) does the source give for “PNA-mycwt-NLS: c-myc anti-gene PNA (SEQ ID NO:1) linked to SV40 Nuclear Localization Signal peptide PKKKRKV; positive control (TCAACGTTAGCTTCACC; all peptide nucleic acid (PNA); further chemistry not fully specified) [reference compound]” here?
Answer: Its cell growth is 34 % of control.

Question: And the “inhibition of cell growth” value (DU145 cells [6])?
Answer: Its value is 36%.

Question: And the “decline in cell viability” value (LNCaP cells [5]; 10 µM)?
Answer: The value was “about 20%”.

Question: What about the “effect on cell viability” value (DU145 cells [7]) of the same compound?
Answer: Its value is “same magnitude and timing”.

Question: What about the “decrease in MYC content” value (c-myc gene [1]; 10 μM, 72 h, linear decrease) of the same compound?
Answer: Its value is 52%.

Question: What about the “inhibition of MYC” value (c-myc gene [2]; 72 hours, linear inhibition) of the same compound?
Answer: The value was “about 65%”.

Question: And the cell viability (Burkitt's lymphoma cells)?
Answer: Its cell viability is “small decrease”.

Question: What about the “inhibition of MYC expression” value (Burkitt's lymphoma cells) of the same compound?
Answer: The value was “maximum inhibition”.
